{
  "source": "the Deep4Chem optical property database",
  "test": "solvent given as SMILES",
  "data": [
    {"smiles": "CCCc1c(C(=O)c2ccc3c4c(cccc24)-c2cccc4c2C3CC=C4)c2ccc3cccc4c5cccc6ccc1c(c65)c2c34", "note": "(stereo unspecified)", "values": [
      {"measurement": "fluorescence lifetime", "setting": "in ClCCl", "value": 1.04, "unit": "ns"}
    ]},
    {"smiles": "CC(C)(C)NC(=O)c1cc2ccccc2c2ccc3c4ccccc4c4ccccc4c3c12", "values": [
      {"measurement": "fluorescence lifetime", "setting": "in ClCCl", "value": 3.28, "unit": "ns"}
    ]},
    {"smiles": "CN(C)c1ccc2nc(-c3ccc(/C=N/c4ccccc4)cc3)sc2c1", "values": [
      {"measurement": "fluorescence lifetime", "setting": "in C1CCCCC1", "value": 2.2, "unit": "ns"}
    ]},
    {"smiles": "CC[n+]1c(C=C2C(=O)C(C=C3N(C)c4ccccc4C3(C)C)=C2[O-])sc2ccccc21", "values": [
      {"measurement": "fluorescence lifetime", "setting": "in CO", "value": 0.24, "unit": "ns"},
      {"measurement": "fluorescence lifetime", "setting": "in ClC(Cl)Cl", "value": 1.95, "unit": "ns"}
    ]},
    {"smiles": "CCN(CC)c1ccc2cc(/C=C/C(=C(C#N)C#N)c3ccc4c(c3)c3ccccc3n4CC)c(=O)oc2c1", "values": [
      {"measurement": "fluorescence lifetime", "setting": "in CC(C)=O", "value": 4.49, "unit": "ns"},
      {"measurement": "fluorescence lifetime", "setting": "in CCOC(C)=O", "value": 3.49, "unit": "ns"},
      {"measurement": "fluorescence lifetime", "setting": "in CN(C)C=O", "value": 4.81, "unit": "ns"},
      {"measurement": "fluorescence lifetime", "setting": "in CS(C)=O", "value": 4.66, "unit": "ns"},
      {"measurement": "fluorescence lifetime", "setting": "in Cc1ccccc1", "value": 1.15, "unit": "ns"},
      {"measurement": "fluorescence lifetime", "setting": "in ClCCl", "value": 3.32, "unit": "ns"}
    ]},
    {"smiles": "Cc1cc(C2=Cc3cccc[n+]3[B-](F)(F)O2)ccc1N(C)C", "values": [
      {"measurement": "fluorescence lifetime", "setting": "in ClC(Cl)Cl", "value": 2.74, "unit": "ns"}
    ]},
    {"smiles": "FC(F)(F)c1ccc(-n2c(-c3ccc(N(c4ccc(-c5ccc(N(c6ccc(-c7nc8c9ccccc9c9ccccc9c8n7-c7ccc(C(F)(F)F)cc7)cc6)c6ccc(-c7nc8c9ccccc9c9ccccc9c8n7-c7ccc(C(F)(F)F)cc7)cc6)cc5)cc4)c4ccc(-c5nc6c7ccccc7c7ccccc7c6n5-c5ccc(C(F)(F)F)cc5)cc4)cc3)nc3c4ccccc4c4ccccc4c32)cc1", "values": [
      {"measurement": "fluorescence lifetime", "setting": "in ClCCl", "value": 1.61, "unit": "ns"}
    ]},
    {"smiles": "CCN(CC)c1ccc2cc(-c3nc4ccccc4n3-c3ccccc3)c(=O)oc2c1", "values": [
      {"measurement": "fluorescence lifetime", "setting": "in ClCCl", "value": 13.2, "unit": "ns"}
    ]},
    {"smiles": "CCCCCCCCN1c2ccccc2Sc2cc(/C=C/c3ccc(N(c4ccc(/C=C/c5ccc6c(c5)Sc5ccccc5N6CCCCCCCC)cc4)c4ccc(/C=C/c5ccc(/C=C/c6ccc(N(c7ccc(/C=C/c8ccc9c(c8)Sc8ccccc8N9CCCCCCCC)cc7)c7ccc(/C=C/c8ccc9c(c8)Sc8ccccc8N9CCCCCCCC)cc7)cc6)c6nsnc56)cc4)cc3)ccc21", "values": [
      {"measurement": "fluorescence lifetime", "setting": "in C1CCOC1", "value": 1.45, "unit": "ns"},
      {"measurement": "fluorescence lifetime", "setting": "in CCOC(C)=O", "value": 1.83, "unit": "ns"},
      {"measurement": "fluorescence lifetime", "setting": "in Cc1ccccc1", "value": 3.53, "unit": "ns"},
      {"measurement": "fluorescence lifetime", "setting": "in ClC(Cl)Cl", "value": 2.25, "unit": "ns"},
      {"measurement": "fluorescence lifetime", "setting": "in ClCCl", "value": 2, "unit": "ns"}
    ]},
    {"smiles": "O=[N+]([O-])c1ccc(F)cc1C1CC(c2cccc3ccccc23)=NN1c1ccccc1", "note": "(stereo unspecified)", "values": [
      {"measurement": "fluorescence lifetime", "setting": "in C1CCCCC1", "value": 3.08, "unit": "ns"},
      {"measurement": "fluorescence lifetime", "setting": "in C1CCOC1", "value": 3.76, "unit": "ns"},
      {"measurement": "fluorescence lifetime", "setting": "in C1COCCO1", "value": 3.77, "unit": "ns"},
      {"measurement": "fluorescence lifetime", "setting": "in CC#N", "value": 3.81, "unit": "ns"},
      {"measurement": "fluorescence lifetime", "setting": "in CC(C)O", "value": 2.85, "unit": "ns"},
      {"measurement": "fluorescence lifetime", "setting": "in CCOC(C)=O", "value": 3.67, "unit": "ns"},
      {"measurement": "fluorescence lifetime", "setting": "in CCOCC", "value": 3.53, "unit": "ns"},
      {"measurement": "fluorescence lifetime", "setting": "in CO", "value": 2.86, "unit": "ns"},
      {"measurement": "fluorescence lifetime", "setting": "in Cc1ccccc1", "value": 3.29, "unit": "ns"},
      {"measurement": "fluorescence lifetime", "setting": "in ClC(Cl)Cl", "value": 3.68, "unit": "ns"},
      {"measurement": "fluorescence lifetime", "setting": "in O", "value": 1.4, "unit": "ns"}
    ]},
    {"smiles": "Cc1ccc(N(c2ccccc2)c2ccc3ccc4c(N(c5ccccc5)c5ccc(C)cc5)ccc5ccc2c3c54)cc1", "values": [
      {"measurement": "fluorescence lifetime", "setting": "in ClCCl", "value": 6.2, "unit": "ns"}
    ]},
    {"smiles": "c1ccc(-c2nc3c(c4c2-c2ccccc2CC4)-c2ccccc2CC3)cc1", "values": [
      {"measurement": "fluorescence lifetime", "setting": "in CC#N", "value": 1.39, "unit": "ns"},
      {"measurement": "fluorescence lifetime", "setting": "in CCCCCC", "value": 0.26, "unit": "ns"},
      {"measurement": "fluorescence lifetime", "setting": "in CO", "value": 0.29, "unit": "ns"},
      {"measurement": "fluorescence lifetime", "setting": "in CS(C)=O", "value": 0.51, "unit": "ns"}
    ]},
    {"smiles": "CCN(CC)c1ccc2cc(/C(Cl)=C/C=C/C(=C(C#N)C#N)c3ccc4c(c3)c3ccccc3n4CC)c(=O)oc2c1", "values": [
      {"measurement": "fluorescence lifetime", "setting": "in CC(C)=O", "value": 0.47, "unit": "ns"},
      {"measurement": "fluorescence lifetime", "setting": "in CCOC(C)=O", "value": 1.14, "unit": "ns"},
      {"measurement": "fluorescence lifetime", "setting": "in CN(C)C=O", "value": 0.86, "unit": "ns"},
      {"measurement": "fluorescence lifetime", "setting": "in CS(C)=O", "value": 0.36, "unit": "ns"},
      {"measurement": "fluorescence lifetime", "setting": "in Cc1ccccc1", "value": 1.39, "unit": "ns"},
      {"measurement": "fluorescence lifetime", "setting": "in ClCCl", "value": 1.82, "unit": "ns"}
    ]},
    {"smiles": "F[B-]1(F)OC(c2ccc(N3CCCC3)cc2)=Cc2cccc[n+]21", "values": [
      {"measurement": "fluorescence lifetime", "setting": "in ClC(Cl)Cl", "value": 2.72, "unit": "ns"}
    ]},
    {"smiles": "c1ccc2c(c1)ncc1ccc3cnc4ccccc4c3c12", "values": [
      {"measurement": "fluorescence lifetime", "setting": "in CC#N", "value": 6.3, "unit": "ns"}
    ]},
    {"smiles": "CCCCCCCCCCCCN1C(=O)c2c(c3ccc4cc(-c5ccc(-c6ccccc6)cc5)c(OC)cc4c3c3c2ccc2cc(-c4ccc(-c5ccccc5)cc4)c(OC)cc23)C1=O", "values": [
      {"measurement": "fluorescence lifetime", "setting": "in ClCCl", "value": 6.19, "unit": "ns"}
    ]},
    {"smiles": "CC(C)(C)c1ccc2c(c1)c1cc(C(C)(C)C)ccc1n2-c1ccc2c(c1)C(=O)c1ccc(-n3c4ccc(C(C)(C)C)cc4c4cc(C(C)(C)C)ccc43)cc1C2=O", "values": [
      {"measurement": "fluorescence lifetime", "setting": "in Cc1ccccc1", "value": 7.5, "unit": "ns"},
      {"measurement": "fluorescence lifetime", "setting": "in c1ccc2c(c1)c1ccccc1n2-c1ccc(-c2ccc(-n3c4ccccc4c4ccccc43)cc2)cc1", "value": 10.4, "unit": "ns"}
    ]},
    {"smiles": "Cc1cc(C)c(C2=C(c3c(C)sc(-c4ccc(-c5nc(-c6ccccc6)c(-c6ccccc6)[nH]5)cc4)c3C)C(F)(F)C(F)(F)C2(F)F)s1", "values": [
      {"measurement": "fluorescence lifetime", "setting": "in C1CCOC1", "value": 0.42, "unit": "ns"}
    ]},
    {"smiles": "Cn1c(=O)c(/N=N/c2cc(S(=O)(=O)O)ccc2C(=O)O)c(O)c2ccccc21", "values": [
      {"measurement": "fluorescence lifetime", "setting": "in CS(C)=O", "value": 0.06, "unit": "ns"}
    ]},
    {"smiles": "CCCCn1c2ccc(C#Cc3cccs3)cc2c2c1c1c3ccc(C#Cc4cccs4)cc3n(CCCC)c1c1c3ccc(C#Cc4cccs4)cc3n(CCCC)c21", "values": [
      {"measurement": "fluorescence lifetime", "setting": "in C1CCOC1", "value": 3.8, "unit": "ns"}
    ]},
    {"smiles": "CCC12C(=C3C(=C4c5ccccc5S(=O)(=O)C41CC)C(F)(F)C(F)(F)C3(F)F)c1ccccc1S2(=O)=O", "note": "(stereo unspecified)", "values": [
      {"measurement": "fluorescence lifetime", "setting": "in C1COCCO1", "value": 1.2, "unit": "ns"}
    ]},
    {"smiles": "c1ccc(Cn2c3sccc3c3c4nsnc4c4c5ccsc5n(Cc5ccccc5)c4c32)cc1", "values": [
      {"measurement": "fluorescence lifetime", "setting": "in Cc1ccccc1", "value": 13.5, "unit": "ns"},
      {"measurement": "fluorescence lifetime", "setting": "in ClCCl", "value": 16.2, "unit": "ns"}
    ]},
    {"smiles": "O=C([O-])COc1cc(NC(=O)c2ccc(-c3c4cc(Cl)c(=O)cc-4oc4cc(O)c(Cl)cc34)c(C(=O)[O-])c2)ccc1N(CC(=O)[O-])CC(=O)[O-]", "values": [
      {"measurement": "fluorescence lifetime", "setting": "in O", "value": 1.21, "unit": "ns"}
    ]},
    {"smiles": "CCOC(=O)CCCCCn1c2ccc([N+](=O)[O-])cc2c(=O)c2cc3c(cc21)c(=O)c1cc([N+](=O)[O-])ccc1n3CCCCCC(=O)OCC", "values": [
      {"measurement": "fluorescence lifetime", "setting": "in ClCCl", "value": 5.1, "unit": "ns"}
    ]},
    {"smiles": "Cc1ccc(C2=C3C=C(I)C=[N+]3[B-](F)(F)n3cccc32)cc1", "values": [
      {"measurement": "fluorescence lifetime", "setting": "in C1CCCCC1", "value": 0.184, "unit": "ns"},
      {"measurement": "fluorescence lifetime", "setting": "in CC#N", "value": 0.06, "unit": "ns"},
      {"measurement": "fluorescence lifetime", "setting": "in CCO", "value": 0.07, "unit": "ns"},
      {"measurement": "fluorescence lifetime", "setting": "in CCOC(C)=O", "value": 0.082, "unit": "ns"},
      {"measurement": "fluorescence lifetime", "setting": "in CO", "value": 0.063, "unit": "ns"},
      {"measurement": "fluorescence lifetime", "setting": "in OCC(F)(F)F", "value": 0.069, "unit": "ns"}
    ]},
    {"smiles": "C=Cc1ccc(OC)c(OC)c1", "values": [
      {"measurement": "fluorescence lifetime", "setting": "in C1CCCCC1", "value": 3.3, "unit": "ns"},
      {"measurement": "fluorescence lifetime", "setting": "in CC#N", "value": 3.2, "unit": "ns"}
    ]},
    {"smiles": "CC1(C)c2ccccc2-c2ccc(N3c4ccc(-c5ccc(/C=C6\\C(=O)c7ccc(C(=O)O)cc7C6=O)s5)cc4C4CCCC43)cc21", "note": "(stereo unspecified)", "values": [
      {"measurement": "fluorescence lifetime", "setting": "in ClC(Cl)Cl", "value": 1.04, "unit": "ns"}
    ]},
    {"smiles": "CC1(C)c2ccccc2N(c2ccc3c(c2)c2cc(N4c5ccccc5C(C)(C)c5ccccc54)ccc2c2nc4ccccc4nc32)c2ccccc21", "values": [
      {"measurement": "fluorescence lifetime", "setting": "in c1cc(-c2cccc(-n3c4ccccc4c4ccccc43)c2)cc(-n2c3ccccc3c3ccccc32)c1", "value": 58, "unit": "ns"}
    ]},
    {"smiles": "CCOC(=O)CCCCCn1c2ccc(C)cc2c(=O)c2cc3c(cc21)c(=O)c1cc(C)ccc1n3CCCCCC(=O)OCC", "values": [
      {"measurement": "fluorescence lifetime", "setting": "in CO", "value": 22, "unit": "ns"}
    ]},
    {"smiles": "O=Cc1ccc(C#CC(C#Cc2ccc(C=O)o2)=Cc2ccc(C=C(C#Cc3ccc(C=O)o3)C#Cc3ccc(C=O)o3)cc2)o1", "values": [
      {"measurement": "fluorescence lifetime", "setting": "in ClC(Cl)Cl", "value": 0.6, "unit": "ns"}
    ]}
  ]
}
